Experimental data reported in article PMC3445516 (PLoS ONE, 2012).
Read-outs that look alike come from different tables or passages of the source.

Columns and labels:
Assay in all cases: Ambit kinase profiling, competition binding
PAK7 = target: T1, PAK7 (Homo sapiens, UniProt Q9P286)
T1 construct: purchased Ambit Biosciences (KINOMEscan)
Description: (§1) Also included in the kinase profile are four isoforms of PKC (δ, ε, η, θ) and eight isoforms of CAMKs (CAMKIα, δ, γ; CAMKIIα, β, δ, γ; CAMK4).
(§2) The global kinase profiling experiment was performed by Ambit Biosciences.

[1] = target: T2, RPS6KA1(Kin.Dom.2-C-terminal) (Homo sapiens, UniProt Q15418)
T2 construct: RPS6KA1(Kin.Dom.2-C-terminal); purchased Ambit Biosciences (KINOMEscan)
Description: as §1, §2

KIT(V559D) = target: T3, KIT(V559D) (Homo sapiens, UniProt P10721, V559D)
T3 construct: purchased Ambit Biosciences (KINOMEscan)
Description: as §1, §2

EGFR(G719C) = target: T4, EGFR(G719C) (Homo sapiens, UniProt P00533, G719C); settings: for % Competition: 10 µM
T4 construct: purchased Ambit Biosciences (KINOMEscan)
Description: as §1, §2

CLK1 = target: T5, CLK1 (Homo sapiens, UniProt P49759)
T5 construct: purchased Ambit Biosciences (KINOMEscan)
Description: as §1, §2

SNARK = target: T6, SNARK (Homo sapiens, UniProt Q9H093); settings: for % Competition: 10 µM
T6 construct: purchased Ambit Biosciences (KINOMEscan)
T6 sequence (Q9H093 1-628): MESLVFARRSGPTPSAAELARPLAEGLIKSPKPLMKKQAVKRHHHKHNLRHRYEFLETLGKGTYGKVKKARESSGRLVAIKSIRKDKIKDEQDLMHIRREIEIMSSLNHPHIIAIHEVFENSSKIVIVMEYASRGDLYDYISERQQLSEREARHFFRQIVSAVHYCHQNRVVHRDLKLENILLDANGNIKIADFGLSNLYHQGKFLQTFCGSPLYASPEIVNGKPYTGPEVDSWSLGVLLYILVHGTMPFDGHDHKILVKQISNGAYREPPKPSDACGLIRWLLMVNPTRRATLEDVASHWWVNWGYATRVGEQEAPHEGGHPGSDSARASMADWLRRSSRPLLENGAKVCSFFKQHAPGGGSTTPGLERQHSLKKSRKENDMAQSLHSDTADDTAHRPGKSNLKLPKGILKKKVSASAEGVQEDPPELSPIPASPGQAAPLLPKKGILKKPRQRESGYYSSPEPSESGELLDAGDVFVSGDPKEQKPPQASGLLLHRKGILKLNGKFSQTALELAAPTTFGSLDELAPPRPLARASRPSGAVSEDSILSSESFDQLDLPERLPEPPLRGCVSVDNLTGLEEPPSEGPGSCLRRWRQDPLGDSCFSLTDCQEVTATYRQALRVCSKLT
Description: as §1, §2

BTK = target: T7, BTK (Homo sapiens, UniProt Q06187); settings: for % Competition: 10 µM
T7 construct: purchased Ambit Biosciences (KINOMEscan)
Description: as §1, §2

CSNK1A1L = target: T8, CSNK1A1L (Homo sapiens, UniProt Q8N752)
T8 construct: purchased Ambit Biosciences (KINOMEscan)
T8 sequence (Q8N752 1-337): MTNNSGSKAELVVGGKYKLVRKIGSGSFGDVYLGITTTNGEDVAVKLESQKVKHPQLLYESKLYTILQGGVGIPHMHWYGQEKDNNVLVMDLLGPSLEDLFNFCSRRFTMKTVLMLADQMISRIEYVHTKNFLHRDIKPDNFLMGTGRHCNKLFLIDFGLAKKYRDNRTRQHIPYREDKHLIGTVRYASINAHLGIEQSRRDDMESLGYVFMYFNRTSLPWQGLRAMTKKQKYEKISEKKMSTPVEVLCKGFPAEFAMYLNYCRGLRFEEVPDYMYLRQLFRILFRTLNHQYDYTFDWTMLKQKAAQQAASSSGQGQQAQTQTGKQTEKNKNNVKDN
Description: as §1, §2

PLK4 = target: T9, PLK4 (Homo sapiens, UniProt O00444)
T9 construct: purchased Ambit Biosciences (KINOMEscan)
T9 sequence (O00444 1-970): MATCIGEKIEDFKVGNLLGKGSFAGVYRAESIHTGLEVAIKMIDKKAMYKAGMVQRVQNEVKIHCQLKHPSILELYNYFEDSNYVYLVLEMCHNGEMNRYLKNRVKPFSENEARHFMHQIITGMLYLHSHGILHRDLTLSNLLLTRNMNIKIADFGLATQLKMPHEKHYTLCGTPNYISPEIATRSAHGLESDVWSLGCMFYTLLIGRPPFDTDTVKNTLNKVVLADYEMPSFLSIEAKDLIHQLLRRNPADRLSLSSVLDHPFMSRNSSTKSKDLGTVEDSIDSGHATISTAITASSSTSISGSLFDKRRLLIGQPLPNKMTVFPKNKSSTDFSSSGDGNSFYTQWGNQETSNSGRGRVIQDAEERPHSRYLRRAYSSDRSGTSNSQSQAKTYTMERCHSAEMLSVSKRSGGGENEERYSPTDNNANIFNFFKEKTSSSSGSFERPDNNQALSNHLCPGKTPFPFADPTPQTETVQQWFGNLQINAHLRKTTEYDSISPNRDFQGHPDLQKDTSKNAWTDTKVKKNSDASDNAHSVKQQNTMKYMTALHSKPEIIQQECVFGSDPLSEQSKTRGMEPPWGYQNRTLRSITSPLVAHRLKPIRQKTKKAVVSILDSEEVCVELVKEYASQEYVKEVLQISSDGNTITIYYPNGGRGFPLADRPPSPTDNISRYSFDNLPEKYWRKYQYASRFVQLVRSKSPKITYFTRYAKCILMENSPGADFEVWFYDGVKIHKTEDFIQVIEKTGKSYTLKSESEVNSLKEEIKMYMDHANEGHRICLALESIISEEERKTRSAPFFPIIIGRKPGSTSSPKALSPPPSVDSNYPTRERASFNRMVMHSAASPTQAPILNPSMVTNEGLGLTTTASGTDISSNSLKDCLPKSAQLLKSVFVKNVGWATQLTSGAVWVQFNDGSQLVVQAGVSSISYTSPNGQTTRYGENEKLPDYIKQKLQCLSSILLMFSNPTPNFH
Description: as §1, §2

T5 sequence (P49759 whole entry): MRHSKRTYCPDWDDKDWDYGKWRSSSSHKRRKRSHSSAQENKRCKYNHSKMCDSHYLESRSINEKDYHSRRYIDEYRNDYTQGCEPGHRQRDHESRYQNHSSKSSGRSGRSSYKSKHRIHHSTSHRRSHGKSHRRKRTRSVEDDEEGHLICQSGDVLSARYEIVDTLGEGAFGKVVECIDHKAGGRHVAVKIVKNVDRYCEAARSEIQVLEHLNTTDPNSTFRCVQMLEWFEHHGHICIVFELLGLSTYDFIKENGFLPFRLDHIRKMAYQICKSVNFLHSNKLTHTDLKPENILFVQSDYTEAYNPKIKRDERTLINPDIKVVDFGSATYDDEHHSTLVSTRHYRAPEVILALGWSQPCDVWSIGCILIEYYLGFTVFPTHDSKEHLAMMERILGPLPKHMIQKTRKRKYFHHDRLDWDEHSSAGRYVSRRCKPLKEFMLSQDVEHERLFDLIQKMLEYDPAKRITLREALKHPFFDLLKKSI
T2 sequence (Q15418 392-735 limits assumed): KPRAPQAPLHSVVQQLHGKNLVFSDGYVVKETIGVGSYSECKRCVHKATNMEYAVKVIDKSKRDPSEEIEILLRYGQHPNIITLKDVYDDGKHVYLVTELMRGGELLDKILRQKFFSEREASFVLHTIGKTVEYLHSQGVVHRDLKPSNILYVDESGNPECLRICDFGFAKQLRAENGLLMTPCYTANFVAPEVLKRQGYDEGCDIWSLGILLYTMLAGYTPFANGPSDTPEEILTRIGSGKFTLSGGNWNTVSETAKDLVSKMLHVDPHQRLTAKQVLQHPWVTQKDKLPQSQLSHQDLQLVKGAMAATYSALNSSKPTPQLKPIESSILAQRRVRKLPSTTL
T1 sequence (Q9P286 whole entry): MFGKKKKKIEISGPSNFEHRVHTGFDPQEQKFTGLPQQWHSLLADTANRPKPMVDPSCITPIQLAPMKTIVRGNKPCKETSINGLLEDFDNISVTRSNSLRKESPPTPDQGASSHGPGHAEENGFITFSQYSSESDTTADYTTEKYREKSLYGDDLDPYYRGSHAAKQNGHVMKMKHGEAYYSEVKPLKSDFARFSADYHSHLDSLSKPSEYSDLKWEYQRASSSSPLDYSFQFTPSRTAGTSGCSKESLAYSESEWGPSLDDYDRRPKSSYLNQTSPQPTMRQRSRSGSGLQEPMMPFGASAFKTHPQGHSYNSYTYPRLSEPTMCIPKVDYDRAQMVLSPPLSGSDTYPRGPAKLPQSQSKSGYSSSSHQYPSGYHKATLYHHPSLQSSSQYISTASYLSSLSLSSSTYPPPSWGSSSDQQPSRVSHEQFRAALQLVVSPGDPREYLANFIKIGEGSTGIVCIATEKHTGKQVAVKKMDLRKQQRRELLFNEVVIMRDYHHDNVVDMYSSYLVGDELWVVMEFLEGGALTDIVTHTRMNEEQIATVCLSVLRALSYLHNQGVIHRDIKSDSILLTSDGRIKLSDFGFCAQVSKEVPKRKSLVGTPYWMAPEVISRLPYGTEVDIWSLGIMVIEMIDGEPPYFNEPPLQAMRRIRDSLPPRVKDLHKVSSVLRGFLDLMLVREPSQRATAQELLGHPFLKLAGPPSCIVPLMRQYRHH
T7 sequence (Q06187 whole entry): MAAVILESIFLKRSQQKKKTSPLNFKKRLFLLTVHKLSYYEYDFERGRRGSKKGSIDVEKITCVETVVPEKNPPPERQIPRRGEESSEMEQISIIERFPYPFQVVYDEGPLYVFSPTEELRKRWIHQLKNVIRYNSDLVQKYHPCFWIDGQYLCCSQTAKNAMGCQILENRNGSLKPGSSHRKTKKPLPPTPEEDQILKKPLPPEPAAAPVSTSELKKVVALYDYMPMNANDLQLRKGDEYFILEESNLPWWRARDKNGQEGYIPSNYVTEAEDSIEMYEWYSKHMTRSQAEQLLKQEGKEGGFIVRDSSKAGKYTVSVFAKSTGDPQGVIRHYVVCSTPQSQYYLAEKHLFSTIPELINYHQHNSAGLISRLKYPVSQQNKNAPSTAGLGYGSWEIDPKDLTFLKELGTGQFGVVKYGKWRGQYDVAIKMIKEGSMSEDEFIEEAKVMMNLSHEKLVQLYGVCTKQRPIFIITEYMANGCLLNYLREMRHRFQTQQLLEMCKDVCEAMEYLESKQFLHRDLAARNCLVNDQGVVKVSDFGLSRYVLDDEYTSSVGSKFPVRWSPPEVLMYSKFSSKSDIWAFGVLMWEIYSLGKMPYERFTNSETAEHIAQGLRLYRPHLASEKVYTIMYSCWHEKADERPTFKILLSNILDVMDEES
T3 sequence (P10721 26-976 V559D): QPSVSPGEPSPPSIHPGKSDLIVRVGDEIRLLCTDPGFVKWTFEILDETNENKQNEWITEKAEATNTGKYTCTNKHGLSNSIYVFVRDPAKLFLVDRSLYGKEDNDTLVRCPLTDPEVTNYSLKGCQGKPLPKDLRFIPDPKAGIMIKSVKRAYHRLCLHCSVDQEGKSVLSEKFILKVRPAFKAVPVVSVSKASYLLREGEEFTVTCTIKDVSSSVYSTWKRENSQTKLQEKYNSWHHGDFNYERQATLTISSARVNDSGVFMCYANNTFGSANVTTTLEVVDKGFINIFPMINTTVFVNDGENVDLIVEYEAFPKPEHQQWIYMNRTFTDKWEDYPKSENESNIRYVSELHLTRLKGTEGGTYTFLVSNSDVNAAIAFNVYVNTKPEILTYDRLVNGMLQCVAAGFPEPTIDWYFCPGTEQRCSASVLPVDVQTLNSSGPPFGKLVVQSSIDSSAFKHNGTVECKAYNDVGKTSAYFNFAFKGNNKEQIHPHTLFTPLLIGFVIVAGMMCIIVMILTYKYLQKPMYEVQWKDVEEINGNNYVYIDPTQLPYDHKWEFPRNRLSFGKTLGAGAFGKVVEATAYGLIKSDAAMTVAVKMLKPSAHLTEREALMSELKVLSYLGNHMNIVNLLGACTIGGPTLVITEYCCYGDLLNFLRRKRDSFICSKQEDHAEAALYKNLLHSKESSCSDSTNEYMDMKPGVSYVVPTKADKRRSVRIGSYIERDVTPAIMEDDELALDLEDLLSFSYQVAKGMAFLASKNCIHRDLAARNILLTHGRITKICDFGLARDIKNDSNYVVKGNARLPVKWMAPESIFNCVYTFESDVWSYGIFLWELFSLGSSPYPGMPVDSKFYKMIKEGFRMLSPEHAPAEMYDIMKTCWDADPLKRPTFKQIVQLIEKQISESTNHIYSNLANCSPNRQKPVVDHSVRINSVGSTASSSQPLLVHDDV

Question: What does the source list for `Fc1ccc(-c2c(-c3ccncc3)[nH]c3nccnc23)cc1` [Compound 122]?
Answer: inhibition at 10 µM (PAK7; PAK7, 10 µM, read-out: % Competition): 86%; inhibition at 10 µM ([1]; RPS6KA1(Kin.Dom.2-C-terminal), 10 µM, read-out: % Competition): 92%; inhibition at 10 µM (KIT(V559D); KIT(V559D), 10 µM, read-out: % Competition): 75%; % Competition (EGFR(G719C)): 99%; inhibition at 10 µM (CLK1; CLK1, 10 µM, read-out: % Competition): 97%; % Competition (SNARK): 89%; % Competition (BTK): 91%; inhibition at 10 µM (CSNK1A1L; CSNK1A1L, 10 µM, read-out: % Competition): 95%; inhibition at 10 µM (PLK4; PLK4, 10 µM, read-out: % Competition): 98%

Question: With `CC(O)CNc1cc(-c2[nH]c3cccnc3c2-c2ccc(F)cc2)ccn1` (stereo not drawn) [Compound 140] as the compound, how does the inhibition at 10 µM (PAK7; read-out: % Competition) read?
Answer: < 50%

Question: And the inhibition at 10 µM ([1]; read-out: % Competition)?
Answer: 87%

Question: What about the inhibition at 10 µM (KIT(V559D); read-out: % Competition) of the same compound?
Answer: < 50%

Question: What about the “% Competition” value (EGFR(G719C)) of the same compound?
Answer: 87%

Question: What about the inhibition at 10 µM (CLK1; read-out: % Competition) of the same compound?
Answer: < 50%

Question: What about the “% Competition” value (SNARK) of the same compound?
Answer: <50%

Question: What about the “% Competition” value (BTK) of the same compound?
Answer: <50%

Question: What about the inhibition at 10 µM (CSNK1A1L; read-out: % Competition) of the same compound?
Answer: 86%

Question: And the inhibition at 10 µM (PLK4; read-out: % Competition)?
Answer: < 50%

Question: Which results are given for `Fc1ccc(-c2c(-c3ccncc3)[nH]c3nccnc23)cc1` [RO1155697-000-005]?
Answer: inhibition at 10 µM (PAK7; PAK7, compound concentration 10 uM, read-out: Percent Competition): 86%; inhibition at 10 µM ([1]; RPS6KA1(Kin.Dom.2-C-terminal), compound concentration 10 uM, read-out: Percent Competition): 92%; inhibition at 10 µM (KIT(V559D); KIT(V559D), compound concentration 10 uM, read-out: Percent Competition): 75%; Percent Competition (EGFR(G719C); compound concentration 10 uM): 99%; inhibition at 10 µM (CLK1; CLK1, compound concentration 10 uM, read-out: Percent Competition): 97%; Percent Competition (SNARK; compound concentration 10 uM): 89%; Percent Competition (BTK; compound concentration 10 uM): 91%; inhibition at 10 µM (CSNK1A1L; CSNK1A1L, compound concentration 10 uM, read-out: Percent Competition): 95%; inhibition at 10 µM (PLK4; PLK4, compound concentration 10 uM, read-out: Percent Competition): 98%
